Measurements as given in US12643893B2, “Heteroaryl-pyridinium compound and redox flow battery comprising the same” (Korea Advanced Institute of Science and Technology, priority 2021, dated 2026).

What was measured:
[1] = Cyclic voltammetry (CV) in three-electrode cells; format: physicochemical; conditions: for Peak to peak potential difference (ΔEp) / Ratio of anodic peak current (Ipa) to cathodic peak current (Ipc) (Ipa/Ipc) @50 mV s^−1: 1st event (or only value); for potential shift after CV cycles: FIG. 7; for Ipa/Ipc @50 mV s^−1 / ΔEp: 1st event (single value for BTMAP-Fc)
Method: All electrochemical examinations were carried out using a Biologic VMP3 electrochemical workstation in an Ar-filled glove box (MOTek, negligible O2 and H2O, tested by the ketyl solution).
Cyclic voltammetry (CV) was conducted in three-electrode cells comprised of glassy carbon (GC; diameter (d)=3 mm) as the working electrode (WE), a platinum wire as the counter electrode (CE), and a leak-free Ag/AgCl as the reference electrode (RE). The GC electrodes were polished using alumina slurry before testing (ALS Co., Ltd).
After CV analysis, ferrocene (Fc, ferrocene, 98%, Sigma-Aldrich) was added to the cell to measure its redox potential, and the measured sample potential was converted to the Fc/Fc^+.

[2] = Solubility test (UV-vis calibration curves, maximum solubility); conditions: for solubility: organic solvent or mixture, thermodynamic from solid
[3] = Rotating disk electrode LSV, diffusion coefficient (Levich equation); format: physicochemical
Method: To measure diffusion coefficient (D), rotating disk electrode (RDE; ALS Co., Ltd) measurements were conducted with the same three-electrode cells. […] Limited mass-transport provides a current plateau (iL) of redox processes, which is linearly proportional to the square root of the rotating rates (ω^1/2). The diffusion coefficient (D) was calculated by plotting IL as a function of ω^1/2 and through the Levich equation (equation S1). iL=0.620nFAD^2/3ω^1/2η^−1/6Co (equation S1)
where IL is the limiting current (A cm^−2), n is the number of electrons transferred during the redox reaction, F is the Faraday's constant (96485 C mol^−1), A is the area of the electrode (0.0707 cm^2), D is the diffusion coefficient (cm^2 […]), ω is the angular rotation rate (rad s^−1), η is the kinematic viscosity (0.00442 cm^2 s^−1, referred to 0.1 M TBAPF6/MeCN), and Co is the concentration of the sample chemical.

[4] = Electron-transfer rate from CV curves (Nicholson method); format: physicochemical
Method: The electron-transfer rate (k^0) was calculated from CV curves and using the Nicholson method(equation S2).
where k^o is the electron-transfer constant (cm/s), D is the diffusion coefficient estimated from the above RDE studies, R is the gas constant (8.314 J K^−1 mol^−1), T is the temperature (298 K), v is the scan rate of the CVs (mV s^−1).
The Ψ value was obtained by Kingler and Kochi relation (equation S3).
where ΔEp is the peak-to-peak potential for the corresponding reduction or oxidation event.

[5] = after 100 cycles (in parentheses)
[6] = initial, 10 mM in 0.1 M TBABF4/MeCN
[7] = 1st redox event (or the only value given), 10 mM in 0.1 M TBABF4/MeCN
[8] = 2nd redox event, 10 mM in 0.1 M TBABF4/MeCN
[9] = MeCN, Solubility (M) in MeCN, in MeCN
[10] = c1, first cathodic event (single value for BTMAP-Fc, oxidation process)

| Peak to peak potential difference (ΔEp) [1, 5] [mV] | Ratio of anodic peak current (Ipa) to cathodic peak current (Ipc) (Ipa/Ipc) @50 mV s^−1 [1, 5] | Peak to peak potential difference (ΔEp) [1, 6] [mV] | Ratio of anodic peak current (Ipa) to cathodic peak current (Ipc) (Ipa/Ipc) @50 mV s^−1 [1, 6] | Formal potential (E^o′) [1, 7] | Formal potential (E^o′) [1, 8] | potential shift after CV cycles [1] | solubility [2, 9] [M] | SMILES | further results |
| --- | --- | --- | --- | --- | --- | --- | --- | --- | --- |
| 102 | 0.91 | 99 | 0.93 | 1st = −1.24 V vs. Fc/Fc^+ | 2nd = −1.96 V vs. Fc/Fc^+ | positive (+) potential shift | 0.07 | CCCCCCCCCC[n+]1ccc(-c2nc3ccccc3s2)cc1 [Dec-BTP^+·BF4^−, 4-(benzo[d]thiazol-2-yl)-1-decylpyridin-1-ium tetrafluoroborate] | – |
| – | – | – | – | – | – | – | – | C[n+]1ccc(-c2nc3ccccc3s2)cc1 [BTP^+·BF4^−, 4-(benzo[d]thiazol-2-yl)-1-methylpyridin-1-ium tetrafluoroborate] | solubility ([2]; 0.5 M TBABF4 in MeCN, maximum solubility in electrolyte solution, 0.5 M TBABF4/MeCN): 0.087 M; Solubility (M) 0.5M TBAPF6/MeCN ([2]; electrolyte solution, head prints 0.5M TBAPF6/MeCN): 0.087 M; Solubility (M) MeCN ([2]; in MeCN): 0.26 M; Solubility (M) in MeCN ([2]; in MeCN): 0.26 M; maximum solubility in MeCN ([2]; in MeCN): 260 mM |
| 107 | 0.98 | 104 | 1.00 | 1st = −1.24 V vs. Fc/Fc^+ | 2nd = −1.97 V vs. Fc/Fc^+ | positive (+) potential shift | 0.1 | COCC[n+]1ccc(-c2nc3ccccc3s2)cc1 [MOE-BTP^+·BF4^−, 4-(benzo[d]thiazol-2-yl)-1-(2-methoxyethyl)pyridin-1-ium tetrafluoroborate] | – |
| 124 | 0.99 | 125 | 0.98 | 1st = −1.36 V vs. Fc/Fc^+ | 2nd = −2.13 V vs. Fc/Fc^+ | positive (+) potential shift | 0.23 | CCCCCC[n+]1ccc(-c2nc3ccccc3s2)cc1 [Hex-BTP^+·BF4^−, 4-(benzo[d]thiazol-2-yl)-1-hexylpyridin-1-ium tetrafluoroborate] | – |
| 81 | 0.88 | 89 | 0.89 | 1st = −1.33 V vs. Fc/Fc^+ | 2nd = −1.94 V vs. Fc/Fc^+ | – | – | Cc1cc(-c2nc3ccccc3s2)cc(C)[n+]1C [DiMe-BTP^+·BF4^−, 4-(benzo[d]thiazol-2-yl)-1,2,6-trimethylpyridin-1-ium tetrafluoroborate] | cyclability in the CV profile ([1]; 100 CV cycles, FIGS. 6 and 7): excellent cyclability |
| – | – | – | – | – | – | – | – | C[N+](C)(C)CCC[c-]1cccc1.C[N+](C)(C)CCC[c-]1cccc1.O=S(=O)([N-]S(=O)(=O)C(F)(F)F)C(F)(F)F.O=S(=O)([N-]S(=O)(=O)C(F)(F)F)C(F)(F)F.[Fe+2] [BTMAP-Fc·2TFSI^−, 1,1′-bis[3-(trimethylammonio)propyl]ferrocene dibis-trifluoromethanesulfonimidate, reference compound] | Ipa/Ipc @50 mV s^−1 [1, 5]: 1.03 (1.03); ΔEp [1, 5]: 149 (149) mV; Ipa/Ipc @50 mV s^−1 ([1]; initial): 1.03 (1.03); ΔEp ([1]; initial): 149 (149) mV; E^o′ ([1]; 1st redox event (single value for BTMAP-Fc), 4 mM in 0.1 M TBATFSI/MeCN): −0.03 V vs. Fc/Fc^+; Formal potential (E^o′) ([1]; first redox event (single event for BTMAP-Fc), CV, 4 mM in 0.1 M TBATFSI/MeCN): −0.03 V vs. Fc/Fc^+; peak-to-peak potential difference (ΔEp) ([1]; maintained for 100 CV cycles): ~150 mV; anodic-to-cathodic peak current ratio (Ipa/Ipc) ([1]; preserved during 100 CV cycles): about 1; diffusion coefficient (D) ([3]; 0.1 M TBATFSI/MeCN): 2.0×10^−6 cm^2 s^−1; D (diffusion coefficient) [3, 10]: 2.00 X10^−6 cm^2 s^−1; electron-transfer constant (k^o) ([4]; 0.1 M TBATFSI/MeCN): 0.034 cm/s; k^o (electron-transfer constant) [4, 10]: 0.034 cm/s |
